Results as given in US10745778B2, “Leaching aids and methods of using leaching aids” (BASF SE, priority 2015, dated 2020).

Experiment: Surface tension of synthetic pregnant leaching solution (Example 4)
Assay type: physicochemical
Conditions: synthetic PLS 6 g/L copper, 2 g/L iron, pH about 2.0
Method: This example investigated a method for determining the impact of a leaching aid on the surface tension of a typical leaching solution. A synthetic pregnant leaching solution (“PLS”) of 6 g/L copper and 2 g/L iron at a pH of about 2.0 was prepared in deionized (“DI”) water to form a quality control (“QC”) feed. To this, mixtures of synthetic PLS having varying levels of Leach aid A (i.e., MC1000) or Leach Aid B (i.e., TMP-7(EO)) were prepared and the surface tension of each solution was measured.

- surface tension as a function of concentration of the leaching aid: decreased with increasing concentration
Structure (SMILES): CCCCCCCCCC[N+](C)(C)CC(=O)[O-] [MC1000]
